As usually defined, the Inhibition is the change of the read-out against control, counted positive when it falls.

Results on 89 molecules are retold here after ChEMBL document CHEMBL3137356, “MMV Box Cryptosporidium parvum screening set”.

In the experiment the test system is Cryptosporidium parvum. Nature of the experiment: MMV: Cryptosporidium parvum oocysts (Iowa Strain) were prepared for use by treatment with 10 mM HCl (37 degrees C, 10 min) followed by 2 mM sodium taurocholate in phosphate-buffered saline (PBS) with Ca2+ and Mg2+ (16 degrees C, 10 min) in order to stimulate excystation. The high-throughput screen was carried out by inoculating >90% confluent human ileocecal adenocarcinoma (HCT-8) cells (ATCC) with ~5.5 x 10^3 primed oocysts per well. Experimental compounds or DMSO (vehicle) were added three hours after infection, and cells were incubated for 48 hours. The class given is functional.
With `CN1CCN(c2ccc(Nc3c4ccccc4nc4ccccc34)cc2)CC1`, the Inhibition amounted to 7.066%. The same measure for `CN(C)CCCNc1c2ccccc2nc2ccccc12`: 55.64%; for `CCN1CCCC1CNc1[nH]cnc2c3cc(Cl)ccc3nc1-2` (centres undefined): -14.57%; for `COc1ccc(-c2c(C)nn3c(N)c(C#N)cnc23)cc1OC`: -20.9%.

Regarding `CSC1=NC(=Nc2c(C)cccc2C)C2(CCC(C(C)(C)C)CC2)N1c1ccc(Cl)cc1` (centres undefined), the Inhibition is -57.3%. With `C[n+]1c2ccccc2nc2ccc(NCCO)cc21` the figure was -27.1%; with `Cc1cc(C)cc(Nc2cc(C)nc3nc(C(F)(F)F)nn23)c1`, -21.92%. With `O=C(NCC(c1ccsc1)N1CCCCCC1)c1ccc(C(F)(F)F)cc1` (centres undefined) the figure was -22.24%. `COc1ccc(-c2cc3c(SCC(=O)Nc4cc(C(F)(F)F)ccc4Cl)nccn3n2)cc1`: the Inhibition was -78.4%. With `Cc1ccc(-c2cc3c(SCC(=O)Nc4cc(C(F)(F)F)ccc4Cl)nccn3n2)cc1` the figure was -45.33%. Consider `CCN(CC)CCNc1ncnc2c1[nH]c1ccc(Cl)cc12`, for which the Inhibition is recorded as -27.98%.

Turning to `CCOC(=O)c1cnc2ccc(CC)cc2c1O`, the Inhibition was -16.47%. The same measure for `Cc1ccc(-c2cc3c(nn2)-c2ccccc2C3=O)cc1`: -55.29%; for `CCN(CC)CCNc1ccnc2cc(Cl)ccc12`: -45.62%; for `Cc1ccc(Nc2nc(-c3ccccn3)cs2)cc1`: -19.75%.

`CCCCCC(=O)N1c2ccccc2N=C2CC(c3ccc(OC)c(OC)c3)CC(O)=C2C1c1ccc(C(F)(F)F)cc1` (centres undefined): the Inhibition is -9.957%. As to `Cc1cc(Nc2ccc3ccccc3c2)n2ncnc2n1`, the Inhibition is on record as -10.13%. With `Cc1cc(NCCN2CCCCC2)c2ccc3ccccc3c2n1` the figure was -25.58%. The same measure for `COc1ccc(-n2ccnc2SCC(=O)Nc2cc(C)ccc2C)c(OC)c1`: -14.53%; for `CCN1CCN(Cc2ccc(NC(=O)c3cc4ccc5cccnc5c4[nH]3)cc2)CC1`: -49.16%. As for `COc1ccc(-c2nc(NC(=O)CS(=O)(=O)c3ccc(F)cc3)sc2C)cc1`, the Inhibition was -22.95%.

With `O=C(O)C1Cc2c([nH]c3ccccc23)C(c2ccc(Cl)cc2Cl)N1` (centres undefined), the Inhibition is reported as -71.65%. With `Cc1ccc(N2C(=O)C3C(C2=O)C2(c4ccccc4)C(=O)C3(c3ccccc3)C(c3ccccc3)=C2c2ccccc2)cc1` (centres undefined) the figure was -46.86%. As to `CCc1c(C)c(=N)c2ccccc2n1C.I`, the Inhibition is on record as 11.41%. The same measure for `COc1cccc(NC(=O)[C@H](C(C)C)n2c(=O)[nH]c3ccccc3c2=O)c1`: 8.977%; for `CCOC(=O)c1cn(CC)c2cc(N(C)CCc3ccc(OC)c(OC)c3)c(F)cc2c1=O`: 43.56%.

Turning to `CCC(c1ccccc1)c1nn2c(-c3cccs3)nnc2s1` (centres undefined), the Inhibition is recorded as -11.07%. The same measure for `CC(C)(C)c1ccc(O)c(CNC2CCCCC2)c1`: -70.4%; for `O=[N+]([O-])c1ccc(C=NNc2nc3ccccc3[nH]2)cc1`: -55.94%; for `CCOc1cc2c(cc1OCC)C(c1cc(OC)c(O)cc1Cl)NCC2` (centres undefined): -16.38%. With `CC1CN(C(=O)c2sc3ccccc3c2Cl)CC(C)O1` (centres undefined) the figure was 27%; with `CN(C)c1ccc(C=Cc2nc(=O)c3ccccc3o2)cc1`, -61.37%.

Turning to `COc1ccc(C2=C(c3ccc(OC)cc3)C3(c4ccccc4)C(=O)C2(c2ccccc2)C2C(=O)N(c4ccc(C)cc4)C(=O)C23)cc1` (centres undefined), the Inhibition was 63.25%. The same measure for `CCOC(=O)c1c(NC(=O)c2ccccc2)sc2c(O)c(CN(CC)CC)ccc12`: 50.63%; for `CCOC(=O)C1=C(c2ccccc2)N=c2sc(=Cc3cc(C)n(-c4ccc(F)cc4)c3C)c(=O)n2C1c1cccc(OC)c1OC` (centres undefined): -76.69%. With `CCC1(C)CC(CCNCc2ccccc2O)(c2ccc(C)cc2)CCO1` (centres undefined) the figure was -2.346%.

As to `OC(CNC1CCCCC1)Cn1c2ccccc2c2ccccc21` (centres undefined), the Inhibition is on record as -24.91%.

Turning to `Cc1cc(Nc2ccc(C)c(Cl)c2)n2nc(C(F)(F)F)nc2n1`, the Inhibition is recorded as 4.308%.

As for `COc1cccc(C=Cc2nc(=O)c3ccccc3o2)c1OC`, the Inhibition was 44.65%.

For the molecule `CCCN(CCC)CC(O)COc1ccccc1C(=O)Nc1ccccc1` (centres undefined), the Inhibition is on record as 46.62%. In the case of `Fc1ccc2[nH]c3c(NCCCN4CCOCC4)ncnc3c2c1`, the Inhibition is -0.2614%. The same measure for `COc1ccc(C(=O)Nc2nonc2-c2ccc(OC)c(OC)c2)cc1Cl`: 4.722%; for `COc1ccc(C=C2SC(=N)N(c3ccccc3OC)C2=O)cc1`: 10.76%; for `COc1ccc(NC(=O)C2c3ccccc3C(=O)N(CC(C)C)C2c2cccs2)cc1Cl` (centres undefined): -10.67%. With `CCOC(=O)c1c(C)n(-c2ccc(Cl)cc2)c2ccc(OC(=O)C=Cc3ccccc3)cc12` the figure was -77.36%; with `COc1ccc2c(c1)OC(O)(C(F)(F)C(F)(F)F)CC2=O` (centres undefined), 33.72%; with `Oc1ccc(Cl)cc1CNc1nc2ccccc2[nH]1`, -2.947%. With `CCOc1cc(Cl)c(C(C)NC(=O)c2ccccc2)cc1OCC` (centres undefined) the figure was 5.189%; with `C=CC12CCN(CC1)C(C(O)c1ccnc3ccc(OC)cc13)C2.Cl` (centres undefined), 1.246%. For `Cc1ccc(-c2cc3nc4c(c(O)n3n2)CCCC4)cc1`, the Inhibition worked out at 2.31%.

Regarding `Cc1cccc(Nc2nc(N)c3ccccc3n2)c1.Cl`, the Inhibition came out at 39.08%. The same measure for `CCn1c(CN2CCN(Cc3ccccc3)CC2)nc2cc(NC(=O)c3cccs3)ccc21`: -14.21%; for `COc1ccccc1CNC(=O)CCn1c(=O)[nH]c2ccccc2c1=O`: 3.729%; for `O=C(Nc1ccc(Cl)cc1)N1CCN(c2ccc3nncn3n2)CC1`: 64.92%. The same measure for `c1ccc2cc3c(Nc4ccc(N5CCOCC5)cc4)ccnc3cc2c1`: 17%. The same measure for `Cc1cc(C)c2c(c1)OCN(Cc1ccccc1Cl)C2`: -66.49%; for `COc1cc(OC)c(N(C)C(=O)c2cc3c(s2)-c2ccccc2S(=O)(=O)C3)cc1Cl`: -25.68%.

As for `COc1ccccc1NC1=C(N2CCCCC2)C(=O)c2ccccc2C1=O`, the Inhibition is given as -35.82%.

As to `CCOC(=O)c1cn(CC)c2cc(N3CCCCC3)c(F)cc2c1=O`, the Inhibition is listed as 6.363%. The same measure for `CCCc1cc(O)c2c3c(c(=O)oc2c1)CN(C)CC3`: -49.5%. The same measure for `Cc1cc(NC(=O)C2c3ccccc3C(=O)N(CC(C)C)C2c2cccs2)no1` (centres undefined): -19.27%. With `Cl.Oc1ccccc1CNCC12CC3CC(CC(C3)C1)C2` the figure was -10.2%; with `CNCCCNc1ccnc2cc(Cl)ccc12`, -4.729%; with `COc1ccccc1CNC(=O)CCn1c(=O)[nH]c2ccsc2c1=O`, -10.39%. Take `COc1ccc(Br)cc1C1Nc2ccc3ccccc3c2C2=C1C(=O)CC(c1ccccc1)C2` (centres undefined): the Inhibition is -67.54%.

`Cc1cc(C=C2SC(=Nc3ccccc3)N(C3CCCC3)C2=O)c(C)n1-c1ccc(Cl)cc1`: the Inhibition turned out to be 0.2141%. The same measure for `CCn1c(SCC(=O)Nc2cc(C(F)(F)F)ccc2Cl)nc2ccccc2c1=O`: -35.13%; for `Cc1ccc(Cn2c(N3CCC(C(=O)NCc4cccs4)CC3)nc3ccccc32)cc1`: -4.981%; for `CC1CCN(Cc2ccc(NC(=O)c3cc4ccc5cccnc5c4[nH]3)cc2)CC1`: -17.38%.

For `O=C(Nc1ccc(Cl)cc1C(=O)Nc1ccncc1)c1ccc(Cl)cc1Cl`, the Inhibition is given as -3.564%. `CCOc1ccc(-c2nonc2NC(=O)c2cccc(C)c2)cc1OCC`: the Inhibition worked out at 2.223%. With `CCc1ccc(Nc2cc(C)c3ccc(O)cc3n2)cc1.Cl` the figure was -30.31%; with `COc1ccc2c(=O)cc(C(Cl)(Cl)Cl)oc2c1`, 71.77%; with `CC(C)(C)CC(C)(C)NCC(O)COc1ccc2c(c1)CCC2.Cl` (centres undefined), -49.34%.

Take `CSc1ccccc1C(=O)Nc1nc(-c2ccccn2)cs1`: the Inhibition is reported as 75.6%. On to `CCCCc1ccc(NS(=O)(=O)c2cc3c4c(c2)CCN4C(=O)CC3)cc1`, for which the Inhibition came to 4.064%. The same measure for `COc1ccc(-c2nc3cc(Cc4ccc5[nH]c(-c6ccc(OC)cc6)nc5c4)ccc3[nH]2)cc1`: 35.52%; for `CCOC(=O)c1ccc2nc(-c3ccccc3)cc(O)c2c1`: -8.454%; for `Cc1cc(Nc2ccc(Cl)cc2)n2nc(C(F)(F)F)nc2n1`: 36.64%. The same measure for `COc1ccc(C(C)=O)cc1N1C(=O)C2C(C1=O)C1(c3ccccc3)C(=O)C2(c2ccccc2)C(c2ccc(C)cc2)=C1c1ccc(C)cc1` (centres undefined): 5.543%; for `CCCCCCOC(=O)C1=C(C)NC(=O)NC1c1ccccc1F` (centres undefined): -26.01%; for `COc1ccc(C2Sc3ccccc3N=C3C2=C(O)c2ccccc23)cc1` (centres undefined): 19.55%. With `Cc1ccc(N2C3c4ccccc4N(S(=O)(=O)c4ccc(C)cc4)C2c2ccccc2N3S(=O)(=O)c2ccc(C)cc2)cc1` the figure was -51.15%. Consider `CCCc1c(CC)c(=N)c2ccccc2n1C`, for which the Inhibition is -20.98%. With `Cc1ccc(Nc2nc(NCCO)c3ccccc3n2)cc1C`, the Inhibition came to 34.33%. With `CC1CCCCN1CCCNC(=O)c1ccc2c(c1)sc1nc(-c3ccc(F)cc3)cn12` (centres undefined) the figure was 7.741%; with `CCOC(=O)c1cnc2c(C)cc(C)cc2c1Nc1ccc(OC)c(OC)c1`, -30.02%; with `COc1ccc(NC(=O)C2c3ccccc3C(=O)N(CC(C)C)C2c2cccs2)cc1` (centres undefined), 0.02548%. With `c1ccc(Cn2c(N=Nc3c(Nc4ccccc4)ccc4ccccc34)nc3ccccc32)cc1` the figure was 2.817%.
